Key:
growth hormone secretion [1] = test: Growth hormone secretion regulating function, oral administration of amino acid solutions; assay type: in vivo, shiba-goat (capra hircus); conditions: sodium aspartate monohydrate 5 mmol/kg, valine 5 mmol/kg, blood 6 h before to 12 h after administration, n=3
Description: Two- to four-year-old mature castrated male and female shiba-goats (25 to 35 kg), purchased from the farm of Tokyo University, were domesticated for about one week. Sodium aspartate monohydrate (5 mmol/kg, 861 mg/kg), valine (5 mmol/kg, 586 mg/kg), and a mixture thereof, prepared in the same way as Example 1, were administered orally to the shiba-goats, and blood was collected continuously during a period between 6 hours before and 12 hours after administration every 15 minutes via a cannula placed in the jugular vein, followed by investigation of changes in growth hormone secretion (n=3). The concentrations of the growth hormone in blood were measured by immunoassay in which europium was used.
The growth hormone and antibody used in the immunoassay were purchased from National institute of Diabetes and Digestive and Kidney Diseases. The other procedures were performed based on a reference (Sugino T et al., Biochemical and biophysical research communications 295: 255-60). The minimum measured concentration was 2 ng/ml, while the maximum measured concentration was 126 ng/ml. The intra-assay variation and inter-assay variation were 11.3% and 8.6%, respectively.

growth hormone secretion [2] = test: Growth hormone secretion regulating function, intravenous administration of amino acid solutions; assay type: in vivo, shiba-goat (capra hircus); conditions: aspartic acid 0.75 mmol/kg, valine 1.0 mmol/kg, blood 6 h before to 12 h after administration, n=3
Description: The growth hormone secretion regulating function of amino acids to be used in the present invention was evaluated by investigating changes in growth hormone secretion caused by intravenous administration of amino acid solutions. The details are as follows.
Special grade aspartic acid (Ajinomoto Co., Inc.) and valine (Ajinomoto Co., Inc.) were used as L-type amino acid samples. The amino acids were dissolved in purified water or an aqueous solution of 5% carboxymethylcellulose and administered as aqueous solutions (pH 7.0 to 8.0).
Two- to four-year-old mature castrated male and female shiba-goats (25 to 35 kg), purchased from the farm of Tokyo University, were domesticated for about one week. Aspartic acid (0.75 mmol/kg), valine (1.0 mmol/kg), and a mixture thereof, prepared in the same way as above, were administered intravenously via a cannula placed in the jugular vein, and blood was collected continuously during a period between 6 hours before and 12 hours after administration every 15 minutes via the cannula placed in the jugular vein, followed by investigation of changes in growth hormone secretion (n=3). The concentrations of the growth hormone in blood were measured by radioimmunoassay based on a double antibody method.
The growth hormone and antibody used in the radioimmunoassay were purchased from National institute of Diabetes and Digestive and Kidney Diseases. The other procedures were performed based on a reference (Hashizume T et al., Animal Science Technology 62: 343-350). The minimum measured concentration was 1 ng/ml, while the maximum measured concentration was 512 ng/ml. The intra-assay variation and inter-assay variation were 11.6% and 12.3%, respectively.

N[C@@H](CC(=O)O)C(=O)O [aspartic acid]
no changes: amount of the growth hormone secreted in a pulse-like manner (growth hormone secretion [1]) | secretion patterns of the growth hormone secreted in a pulse-like manner at a certain frequency (growth hormone secretion [1]) | amount of the growth hormone secreted in a pulse-like manner (growth hormone secretion [2]) | secretion patterns of the growth hormone secreted in a pulse-like manner at a certain frequency (growth hormone secretion [2])

CC(C)[C@H](N)C(=O)O [valine]
no changes: amount of the growth hormone secreted in a pulse-like manner (growth hormone secretion [1]) | secretion patterns of the growth hormone secreted in a pulse-like manner at a certain frequency (growth hormone secretion [1]) | amount of the growth hormone secreted in a pulse-like manner (growth hormone secretion [2]) | secretion patterns of the growth hormone secreted in a pulse-like manner at a certain frequency (growth hormone secretion [2])

Source: patent US20090048340A1, “GROWTH HORMONE SECRETION REGULATOR” (AJINOMOTO CO., INC., priority 2006, published 2009)
